Data set [1] deals with T1, Acetylcholinesterase (AChE) (Electrophorus electricus, UniProt O42275).
T1 construct: purchased Sigma type VI-S
The data set can be described thus: Antiacetylcholinesterase activity (Ellman assay). Format: biochemical, Electrophorus electricus (electric eel). Conditions: for inhibition at 100 µM: read-out: % Inhibition ± RSD of acetylcholinesterase; for % Inhibition ± RSD of acetylcholinesterase: at 100 µM. The procedure: All the chemicals were purchased from commercial suppliers and were used without any purification. Acetylcholinesterase from Electrophorus electricus (electric eel) type VI-S was produced from Sigma. […] SK-N-SH human neuroblastoma cell line was obtained from the American Type Culture Collection (ATCC HTB-11). The melting point of all compounds was determined on an Electrothermal model 9100 capillary melting point apparatus. Infrared (IR) spectra were run on Fourier Transform Infrared Spectroscopy (FT-IR) (Nicolet 6700, Thermo Scientific, Waltham, MA, USA) using the direct compression technique and record in cm^−1. Proton and carbon nuclear magnetic resonance (^1H NMR, ^13C NMR) spectra were obtained on an Advance 300 MHz NMR Spectroscopy (DPX-3000, Bruker, Switzerland) at 300 MHz and 75.45 MHz, respectively. Chemical shifts (δ) were reported in parts per million (ppm). The NMR solvents used were deuterated dimethylsulfoxide (DMSO-d6, δ = 2.49 ppm) and deuterated chloroform (CDCl3, δ = 7.25 ppm). Mass spectra were determined on a LCQ Fleet Ion Trap Mass Spectrometry using the ESI method. Silica gel 60 (Merck, Art 7734) was used for column chromatography as an adsorbent. The ratio of sample and the adsorbent was about 1:40–60 by weight. The mobile phases developed for thin-layer chromatography (TLC) were generally applied for a column. TLC investigations routinely used for chromatographic separations were carried out on silica gel F254 coated aluminum sheets 20 × 20 cm (Merck, 0.2 mm thickness). The components were detected by visualization under ultraviolet (UV) light at λ of 254 and 365 nm. All solvents were reagent grade and, when necessary, were purified and dried by standard methods. Starting materials and reagents were obtained from commercial suppliers.
Acetylcholinesterase (AChE) inhibitory activity was assayed by modified Ellman’s method using 96-well microplates. […] The absorbance of the mixture in each well was measured at 405 nm by using a microplate reader. After adding 25 µL of 0.22 U/mL AChE in Buffer II into each well, the measurement of absorbance was carried out again at 405 nm and repeated every 45 s for 10 min cycles by a microplate reader (Infinite M200, Tecan, Switzerland). […] The assay was performed in triplicate. […] The percent of enzyme inhibition was calculated as follows: {[(A-B) − (C − D)]/(A − B)} × 100, where A and C were the absorbances of the control treatment and test compounds; and B and D were blank of control and test compounds.
Background: In Ellman's method for cholinesterases, released thiocholine reacts with DTNB.

In data set [2] the target is T2, Aβ1–42 (Homo sapiens, UniProt P05067).
T2 construct: Amyloid beta (Aβ1–42) was purchased from the American Peptide Company; purchased American Peptide Company (Sunnyvale, CA, USA)
The data set can be described thus: Anti-Aβ aggregation activity (Thioflavin T fluorescence assay). In kind it is biochemical. The following applies: for IC50: ThT assay, Aβ1–42, 24 h, room temperature, pH 7.4, read-out: IC50 (µM) ± RSD, antiaggregation action on Aβ42. The procedure: Each compound was diluted in 50 mM Tris-HCl (pH 7.4) to achieve a concentration between 10 nM and 100 µM using 5 concentration points. A total of 1 µL of each sample solution was added to 96-well plates. […] The plate was incubated in the dark at room temperature for 24 h with no agitation. After an incubation period, 200 µL of 5 µM ThT in 50 mM Tris-HCl (pH 7.4) was added to each well. Fluorescence was measured on a SpectraMax GEMINI EM (Molecular Devices, Sunnyvale, CA, USA) dual scanning microplate spectrofluorometer with excitation and emission wavelengths at 446 nm and 500 nm, respectively. The percent of antiaggregation was calculated as follows: [1 − (Fsample − Fblank)/Fcontrol] × 100.

Data set [3] in a line: Antioxidant activity (DPPH assay). Conditions: for IC50: DPPH 0.4 mM, 30 min in darkness, read-out: IC50 (µM) ± RSD, antioxidative activity. The procedure:
Increased generation of free radicals also results in cytotoxicity from Aβ42. This effect might be associated with the Aβ1–42 mediated neurotoxicity. Therefore, it was intriguing to research the roles of the synthesized compounds in assisting oxidative stress, thus preventing cell death. By employing vitamin C as a positive control, the antioxidative properties of synthesized compounds were assessed using the DPPH assay. The activities were presented as the IC50 in Table 4.
Antioxidant activity of tested compounds was determined by the reaction of stable DPPH radical with some modification. Briefly, various concentrations of test compounds were added in 96-well plates and then the methanolic DPPH solution (0.4 mM, 0.1 mL) into each well. The reaction mixture was placed for 30 min in darkness. The degree of purple DPPH decolorization to yellow DPPH indicated the scavenging capacity of the test compounds. The absorbance of the mixture was determined at 517 nm using a microplate reader and L-ascorbic acid served as a positive control. The percent of antioxidant activity was calculated as follow: [1 − (Asample − Ablank)/Acontrol] × 100.

A short description of data set [4]: in vitro. Conditions: human. The procedure:
(§1) SK-N-SH cells were pretreated for 3 h with the respective half-maximal inhibitory doses of the tested compounds (except 9 and 10) before incubating with 25 μM Aβ42 for 24 h to determine the neuroprotective effect against Aβ42-induced toxicity. The relative cell viability (compared with the control) was then assessed.
(§2) Quantitative measurement of cell viability was performed by MTT assay. Briefly, SK-N-SH cells were seeded at a density of 5 × 10^4 cells/100 µL into each well of 96-well plate and incubated at 37 °C in 5% CO2 for 24 h. After incubation, the tested compounds were added at different concentrations, from 0 to 1000 µM. After incubation for 24 h, 50 µL of 3-(4,5-dimethylthiazol-2-yl)-2,5-diphenyltetrazolium bromide (MTT) stock solution (1 mg/mL) was added to each well and incubated at 37 °C for 3 h. Absorbance (A) of each well was measured using a plate reader at a wavelength of 590 nm. Three independent experiments were performed, and results were expressed as mean ± SD. […] Each concentration was prepared in triplicate. […] After incubation for 24 h, 50 µL of MTT stock solution (1 mg/mL) was added to each well and incubated at 37 °C for 3 h. The absorbance (A) of each well was measured using a plate reader at a wavelength of 590 nm. Three independent experiments were performed, and results were expressed as mean ± SD.
(§3) The percent of cell viability was calculated as follow: (A590nm of treated cells/A590nm of untreated cells) × 100.

Data set [5] has as its system SK-N-SH neuroblastoma cells. In words: Cytotoxicity on SK-N-SH neuroblastoma cells (MTT assay). Conditions: MTT, 24 h; for Highest concentration that showed nontoxicity on SK-N-SH cells: tested 0–1000 µM; for % Viability ± RSD at the highest nontoxic concentration: at the concentration of Table 2. The procedure: as §1, §2, §3
(In general: Tetrazolium assays rely on reduction of a dye to a coloured formazan, in cell work by metabolically active cells.)

Data set [6] has as its system SK-N-SH neuroblastoma cells. In words: Protection of SK-N-SH neuroblastoma against Aβ42-induced cell death (MTT assay). The following applies: pretreated 3 h at IC50 of antiaggregation (compounds 9 and 10 at 31.25 µM), then 25 µM Aβ42 for 24 h. Here is the method: The effects of Aβ42 on the viability of SK-N-SH neuroblastoma cells were investigated using an MTT reduction test. MTT is a tetrazolium salt that can be reduced to formazan by mitochondria dehydrogenase; the reaction is active only in living cells.
The relative cell viability (compared with the control) was then assessed.
as §2, §3

T1 sequence (O42275 24-633): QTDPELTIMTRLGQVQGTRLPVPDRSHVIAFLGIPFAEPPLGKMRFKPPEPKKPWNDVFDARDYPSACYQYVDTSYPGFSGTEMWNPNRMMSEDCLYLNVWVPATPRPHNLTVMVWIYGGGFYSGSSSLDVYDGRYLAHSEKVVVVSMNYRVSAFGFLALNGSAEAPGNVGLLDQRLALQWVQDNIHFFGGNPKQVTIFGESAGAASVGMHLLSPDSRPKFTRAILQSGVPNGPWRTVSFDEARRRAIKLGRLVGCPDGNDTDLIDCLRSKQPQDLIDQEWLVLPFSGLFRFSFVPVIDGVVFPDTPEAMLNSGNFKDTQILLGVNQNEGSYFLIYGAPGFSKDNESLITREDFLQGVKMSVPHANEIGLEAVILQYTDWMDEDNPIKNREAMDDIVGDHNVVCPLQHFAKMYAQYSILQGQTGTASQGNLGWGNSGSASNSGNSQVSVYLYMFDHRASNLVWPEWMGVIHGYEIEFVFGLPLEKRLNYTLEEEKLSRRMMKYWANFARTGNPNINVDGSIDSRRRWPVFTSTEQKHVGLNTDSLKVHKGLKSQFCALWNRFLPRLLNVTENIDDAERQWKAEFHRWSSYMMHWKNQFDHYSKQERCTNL
T2 sequence (P05067 672-713): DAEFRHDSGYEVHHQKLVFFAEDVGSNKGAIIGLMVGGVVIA

The term inhibition denotes the share of the control response that was lost under treatment. As usually defined, the IC50 is the concentration that gives 50% inhibition. The term viability denotes a per cent measure of how many cells are alive, often set against a control. A lower viability goes with more harm to the cells. For the molecule `Cc1[nH]c2ccc(Oc3ccccc3)cc2c1CC(=O)O` [Compound 3, 2-Methyl-3-(carboxymethyl)-5-phenoxy Indole], in data set [1], the inhibition at 100 µM was found to be 29.3%. Moreover, the IC50 was found to be 18.8 µM in data set [2] and 47.1 µM in data set [3]. In addition, in data set [4], the viability at 24 h amounted to 90.4 ± 3.69%. In addition, in data set [5], the “Highest concentration that showed nontoxicity on SK-N-SH cells” value came to 31.25 µM.
On to `CCOC(=O)Cc1c(C)[nH]c2ccc(Oc3ccccc3)cc12` [Compound 6, 2-Methyl-3-(ethyl ethanoate-2-yl)-5-phenoxy Indole], for which, in data set [1], the inhibition at 100 µM came out at 19.9%. The concentration for half-maximal inhibition (IC50) in data set [2] is 19.1 µM; in data set [3], 190 µM. Also, the viability at 24 h in data set [4] came out at 89.5 ± 2.11%. The “Highest concentration that showed nontoxicity on SK-N-SH cells” value in data set [5] is on record as 31.25. µM.
As to `Cc1[nH]c2ccc(Oc3ccccc3)cc2c1CC(=O)NC#N` [Compound 8, 2-Methyl-3-(cyanoethanamide-2-yl)-5-phenoxy Indole], the inhibition at 100 µM in data set [1] came out at 6.61%. Also, the half-maximal inhibitory concentration (IC50) in data set [2] is 20.6 µM; in data set [3] it was 85.5 µM. Moreover, the “Fold less potent antioxidant than compound 5” value in data set [3] (compared to compound 5) came to 3.03 fold. For the same molecule, the viability at 24 h in data set [4] was determined as 93.8 ± 3.66%. Moreover, in data set [5], the “Highest concentration that showed nontoxicity on SK-N-SH cells” value was determined as 62.50 µM.
For `Cc1ccc(CNC(=O)Cc2c(C)[nH]c3ccc(Oc4ccccc4)cc23)cc1` [Compound 9, 2-Methyl-3-(4-methylbenzylethanamide-2-yl)-5-phenoxy Indole], the “% Inhibition ± RSD of acetylcholinesterase” value (from here on “% Inhibition ± RSD”) in data set [1] is 12.5 ± 4.57%. For the same molecule, the IC50 in data set [2] came to 53.7 µM; in data set [3], 265 µM. The “% Viability ± RSD, neuroprotective effect against Aβ induced damage” value (shortened to “% Viability ± RSD … against Aβ induced damage”) in data set [6] stood at 80.38 ± 3.54%. Besides, in data set [5], the “% Viability ± RSD at the highest nontoxic concentration” value was found to be 95.21 ± 3.00%. Further, in data set [5], the “Highest concentration that showed nontoxicity on SK-N-SH cells” value is on record as 31.25 µM.
For the molecule `Cc1[nH]c2ccc(Oc3ccccc3)cc2c1CC(=O)NCc1ccc(F)cc1` [Compound 10, 2-Methyl-3-(4-fluorobenzylethanamide-2-yl)-5-phenoxy Indole], the “% Inhibition ± RSD” value in data set [1] was determined as 12.45 ± 4.98%. The IC50 in data set [2] was 72.7 µM. Further, the “Fold reduction of anti-Aβ aggregation versus compound 9” value in data set [2] (p-CH3 (compound 9) replaced with p-F (compound 10)) amounted to 1.4 fold. In addition, the “% Viability ± RSD … against Aβ induced damage” value in data set [6] was 63.05 ± 2.70%. Also, the concentration for half-maximal inhibition (IC50) in data set [3] amounted to 86 µM. For the same molecule, in data set [3] (p-CH3 (compound 9) converted to p-F (compound 10)), the “Fold increase of antioxidant potency versus compound 9” value stood at 3.08 fold. Further, in data set [5], the “% Viability ± RSD at the highest nontoxic concentration” value was determined as 80.51 ± 3.96% and the “Highest concentration that showed nontoxicity on SK-N-SH cells” value came to 31.25 µM.
As for `Cc1[nH]c2ccc(Oc3ccccc3)cc2c1CC(=O)Nc1ccccc1` [Compound 11, 2-Methyl-3-(phenylethanamide-2-yl)-5-phenoxy Indole], the inhibition at 100 µM in data set [1] was 30%. Also, the IC50 in data set [2] amounted to 13.1 µM; in data set [3] it was 111 µM. This molecule displayed a viability at 24 h in data set [4] of 94.3 ± 3.31%. Besides, in data set [5], the “Highest concentration that showed nontoxicity on SK-N-SH cells” value came to 15.63 µM.
Turning to `Cc1ccc(S(=O)(=O)NC(=O)Cc2c(C)[nH]c3ccc(Oc4ccccc4)cc23)cc1` [Compound 12, 2-Methyl-3-(4-methylbenzesulfonylethanamide-2-yl)-5-phenoxy Indole], in data set [1], the “% Inhibition ± RSD” value stood at 31.52 ± 4.90%. The concentration for half-maximal inhibition (IC50) in data set [2] is 9.48 µM. In addition, the “% Viability ± RSD … against Aβ induced damage” value in data set [6] came out at 71.85 ± 1.82%. Besides, the concentration for half-maximal inhibition (IC50) in data set [3] was found to be 121 µM. Besides, in data set [5], the “% Viability ± RSD at the highest nontoxic concentration” value is 90.73 ± 4.64% and the “Highest concentration that showed nontoxicity on SK-N-SH cells” value is listed as 15.63 µM.
Take `COc1cc(/C=C/C(=O)CC(=O)/C=C/c2ccc(O)c(OC)c2)ccc1O` [Curcumin, reference compound]: the viability at 24 h in data set [4] came to 94.4 ± 1.83%. Also, the “Highest concentration that showed nontoxicity on SK-N-SH cells” value in data set [5] worked out at 15.63 µM.
With `C[S+](C)[O-]` [DMSO], the “% Viability ± RSD at the highest nontoxic concentration” value in data set [5] was 92.08 ± 2.86%.
For `O=C1O[C@H]([C@@H](O)CO)C(O)=C1O` [Vitamin C, L-ascorbic acid, reference compound], in data set [3], the IC50 was determined as 13.3 µM.

These data come from PMC10051485 (Pharmaceuticals, 2023).
